Experimental data published in patent publication US20230242948A1, “OLEIC ACID PRODUCED FROM MICROORGANISM AND METHOD FOR PRODUCING OLEIC ACID USING MICROORGANISM” (KOREA INSTITUTE OF SCIENCE AND TECHNOLOGY, priority 2022, published 2023).

Key:
Type in all cases: cell-based
[1] = system: wild-type Yarrowia lipolytica (ATCC MYA-2613); assay: Culture of wild-type lipid-producing microorganism in glucose minimal medium with or without hexanoic acid (Test Example 1); details: 1 g/L hexanoic acid
Experimental: (§1) As an exemplary embodiment of the present disclosure, wild-type Yarrowia lipolytica (microorganism accession number ATCC MYA-2613) was inoculated to a minimal medium containing glucose as a carbon source (20 g/L glucose, 6.7 g/L yeast nitrogen base, CSM-ura (MP Biomedicals, Solon, USA), pH 6.8 potassium phosphate buffer) and supplemented with 1 g/L hexanoic acid. Then shaking culture was conducted at 28° C. and 200 rpm. After culturing for 144-168 hours, the microorganism was separated from the culture through centrifugation.
as §1, with “After inoculating” for “As an exemplary embodiment of the present disclosure,”, “MYA-2613)” for “MYA-2613) was inoculated”, “buffer),” for “buffer) and supplemented with 1 g/L hexanoic acid. Then”
(§2) In order to investigate the consumption of the carbon source in the medium and the content of the produced lipids depending on the addition of hexanoic acid during the culturing of the lipid-producing microorganisms, the amount of biomass (dry cell weight) and lipids produced from the microorganisms isolated in Examples 1-2 and Comparative Examples 1-2 was measured. The amount of produced oleic acid was calculated through lipid assay and the amount of consumed glucose was measured form the separated cultures.

[2] = system: recombinant Yarrowia lipolytica; assay: Culture of recombinant lipid-producing microorganism (peroxisomal biogenesis factor 10 deleted, diacylglycerol acyltransferase overexpressed) in glucose minimal medium with or without hexanoic acid (Test Example 1)
Experimental: (§3) As an exemplary embodiment of the present disclosure, after deleting peroxisomal biogenesis factor 10 (SEQ ID NO 1), which is a lipid degradation-related gene, from the wild-type Yarrowia lipolytica (microorganism accession number ATCC MYA-2613) of Example 1 using the CRISPR/Cas9 system, a lipid-producing microorganism was prepared by overexpressing diacylglycerol acyltransferase, which is a key gene in a lipid-producing metabolic pathway, using a vector (pMCS-12TEF-DGA1-CYC1t, SEQ ID NO 3) comprising a UAS1B enhancer, a TEF (translational elongation factor) promoter and a gene encoding diacylglycerol acyltransferase (SEQ ID NO 2). Then, after inoculating the microorganism to a minimal medium containing glucose as a carbon source (20 g/L glucose, 6.7 g/L yeast nitrogen base, CSM-ura (MP Biomedicals, Solon, USA), pH 6.8 potassium phosphate buffer) and supplemented with 1 g/L hexanoic acid, shaking culture was conducted at 28° C. and 200 rpm. After culturing for 144-168 hours, the microorganism was separated from the culture through centrifugation.
as §3, with “After” for “As an exemplary embodiment of the present disclosure, after”, “buffer),” for “buffer) and supplemented with 1 g/L hexanoic acid,”
as §2

[3] = system: transformed Yarrowia lipolytica; assay: Oleic acid production depending on concentration of added hexanoic acid, glucose and xylose medium (Test Example 2); details: for oleic acid concentration increased by / oleic acid content increased by / oleic acid concentration: 168 hours; for oleic acid concentration increased by / oleic acid content increased by: vs Comparative Example 3; for oleic acid concentration: 0.377 g/L without hexanoic acid
Experimental: Specifically, wild-type Yarrowia lipolytica was transformed in the same manner as in Example 2 and hexanoic acid at 0 g/L (Comparative Example 3), 0.2 g/L (Example 3), 0.6 g/L (Example 4) or 1 g/L (Example 5) was added to a minimal medium containing 20 g/L glucose and 10 g/L xylose as carbon sources (20 g/L glucose, 10 g/L xylose, 6.7 g/L yeast nitrogen base, CSM-ura (MP Biomedicals, Solon, USA), pH 6.8 potassium phosphate buffer). Then, after inoculating the transformed microorganism to the medium, shaking culture was conducted at 28° C. and 200 rpm. After culturing for 168 hours, the microorganism was separated from the culture through centrifugation and the amount of produced lipids was measured from the separated strain. The amount of produced oleic acid was calculated through lipid assay and the amount of glucose and xylose consumed as carbon sources was measured from the separated culture.

[4] = Example 3, 0.2 g/L hexanoic acid
[5] = Example 4, 0.6 g/L hexanoic acid

`CCCCCC(=O)O` [hexanoic acid] was tested, and the “lipid production (in words)” value [1] was “not increased significantly”, the “consumption rate of the carbon source glucose” value ([1]; 20 g/L glucose, 28° C., FIG. 1) was “increased” and the “increase of lipid production as compared to Comparative Example 1” value ([1]; 144-168 hours, FIG. 2) was “about 10%”. For the same molecule, the “content of oleic acid in the produced lipids” value ([1]; FIG. 3) was 66%, the “increase of lipid production as compared to Comparative Example 2” value ([2]; 1 g/L hexanoic acid, 144-168 hours, FIG. 2) was “about 10%” and the “consumption rate of the carbon source glucose” value ([2]; Example 2, 1 g/L hexanoic acid, 20 g/L glucose, 28° C., FIG. 1) was “increased”. The intracellular lipid content ([2]; Example 2, 1 g/L hexanoic acid, 50.3% without hexanoic acid (Comparative Example 2)) was 73.8%, the “content of oleic acid in the produced lipids” value ([2]; Example 2, 1 g/L hexanoic acid, FIG. 3) was roughly 61% and the “relative oleic acid production as compared to Comparative Example 1 (wild-type strain, medium not comprising hexanoic acid)” value ([2]; Example 2, recombinant strain plus 1 g/L hexanoic acid, FIG. 4) was “about 3.3 times”. The “oleic acid concentration increased by” value [3, 4] was 10.5%, the “oleic acid content increased by” value [3, 4] was 27.4% and the oleic acid concentration [3, 4] was 0.417 g/L. The “oleic acid concentration increased by” value [3, 5] was 40.3%, the “oleic acid content increased by” value [3, 5] was 40.1% and the oleic acid concentration [3, 5] was 0.529 g/L. For the same molecule, the “oleic acid concentration increased by” value ([3]; Example 5, 1 g/L hexanoic acid) was 61.2%, the “oleic acid content increased by” value ([3]; Example 5, 1 g/L hexanoic acid) was 52.1% and the oleic acid concentration ([3]; Example 5, 1 g/L hexanoic acid) was 0.608 g/L. The consumption of xylose ([3]; hexanoic acid added to medium with 20 g/L glucose and 10 g/L xylose, FIG. 8) was “increased remarkably”.
